Common to all, as to experiment: relative viability (nuclei count vs DMSO), 5 days (fraction); higher = more cells survive
Compound in experiment [1]: CC1=CC(=NN1)NC2=CC(=NC(=N2)/C=C/C3=CC=CC=C3)N4CCN(CC4)C + O=C(CCCCCCC(=O)Nc1ccccc1)NO [Vorinostat] (partner 1 µM)
Summed up:
(§1)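 Nuclei were stained with Hoechst during a one-step fixation (final 0.05% Triton X-100, 1% formaldehyde, 1 ug/ml Hoechst) carried out 5 days after dosing, then counted on 4× images. The cells, lung cancer lines in 1536-well plates, had been dosed by pin tool the day after seeding with one drug alone or a fixed anchor-drug dose plus five library-drug doses (not always all listed) in √10 steps. Relative viability is the nuclei count in treated wells divided by that in vehicle wells, and each value is the median of duplicate plates.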

Compound in the experiment “Bortezomib + Crizotinib”: CC(C)C[C@H](NC(=O)[C@H](Cc1ccccc1)NC(=O)c1cnccn1)B(O)O [Bortezomib] + C[C@@H](Oc1cc(-c2cnn(C3CCNCC3)c2)cnc1N)c1c(Cl)ccc(F)c1Cl [Crizotinib] (partner 1 µM)
The method in brief: as §1

Compound in the experiment “Obatoclax + Dasatinib”: COC1=CC(c2cc3ccccc3[nH]2)=N/C1=C\c1[nH]c(C)cc1C [Obatoclax] + Cc1nc(Nc2ncc(C(=O)Nc3c(C)cccc3Cl)s2)cc(N2CCN(CCO)CC2)n1 [Dasatinib] (partner 0.075 µM)
The method in brief:
as §1

Compound in the experiment “Obatoclax + Tozasertib”: COC1=CC(c2cc3ccccc3[nH]2)=N/C1=C\c1[nH]c(C)cc1C [Obatoclax] + Cc1cc(Nc2cc(N3CCN(C)CC3)nc(Sc3ccc(NC(=O)C4CC4)cc3)n2)n[nH]1 [Tozasertib] (partner 0.1 µM)
Summed up: as §1

Take NCI-H650: the relative viability in experiment [1] (first compound 0.08 µM) was 0.412; in experiment [1] (first compound 0.253 µM), 0.717; in experiment [1] (first compound 0.8 µM), 0.495; in experiment [1] (first compound 2.53 µM), 0.409; in experiment [1] (first compound 8 µM) it was 0.174; in the experiment with Bortezomib + Crizotinib (first compound 0.000632 µM), 0.753. Moreover, the relative viability is 0.584 with Bortezomib + Crizotinib (first compound 0.002 µM); 0.25 with Bortezomib + Crizotinib (first compound 0.006325 µM); 0.177 in the experiment with Bortezomib + Crizotinib (first compound 0.02 µM); 0.451 in the experiment with Obatoclax + Dasatinib (first compound 0.01 µM); 0.431 with Obatoclax + Dasatinib (first compound 0.03162 µM); 0.279 in the experiment with Obatoclax + Dasatinib (first compound 0.3162 µM). The relative viability worked out at 0.263 in the experiment with Obatoclax + Dasatinib (first compound 1 µM); 0.732 with Obatoclax + Tozasertib (first compound 0.01 µM); 0.779 with Obatoclax + Tozasertib (first compound 0.03162 µM); 0.631 in the experiment with Obatoclax + Tozasertib (first compound 0.3162 µM); 0.309 with Obatoclax + Tozasertib (first compound 1 µM).

Values taken from the supplement of paper PMC10307832.
